Measurements from US11220524B2, “Selective inhibitors of protein arginine methyltransferase 5 (PRMT5)” (PRELUDE THERAPEUTICS, INCORPORATED, priority 2017, dated 2022).
Counter-ions that a name gives are not always drawn. Like-named read-outs stand apart in the source and are kept apart here.

Biological target: PRMT5/MEP50 complex (Homo sapiens (Human), UniProt O14744)
Test: Biochemical assay: PRMT5/MEP50 methylation of histone H2A with 3H-SAM, filter plate scintillation
Experimental: Biochemical Assay Protocol
Compounds were solubilized, and 3-fold diluted in 100% DMSO. […] Standard reactions were performed in a total volume of […] assay buffer, with histone H2A (5 μM final) as substrate. To this was added the PRMT5/MEP50 complex diluted to provide a final assay concentration of 5 nM and the compounds were allowed to preincubate for 15 to 20 minutes at room temperature. The reaction was initiated by adding S-[3H-methyl]-adenosyl-L-methionine (PerkinElmer) to final concentration of 1 μM. Following a 60 minutes incubation at 30° C., the reaction was stopped by adding 100 μL of 20% TCA. Each reaction was spotted onto filter plate (MultiScreen FB Filter Plate, Millipore), and washed 5 times with PBS buffer, Scintillation fluid was added to the filter plate and read in a scintillation counter. IC50 values were determined by fitting the data to the standard 4 parameters with Hill Slope using GraphPad Prism software.

[1] = biochemical potency, read-out: PRTMT5/MEP50 IC50
[2] = histone H2A 5 μM, SAM 1 μM, enzyme 5 nM, read-out: PRMT5/MEP50 IC50

Chain of PRMT5/MEP50 complex (O14744 whole entry): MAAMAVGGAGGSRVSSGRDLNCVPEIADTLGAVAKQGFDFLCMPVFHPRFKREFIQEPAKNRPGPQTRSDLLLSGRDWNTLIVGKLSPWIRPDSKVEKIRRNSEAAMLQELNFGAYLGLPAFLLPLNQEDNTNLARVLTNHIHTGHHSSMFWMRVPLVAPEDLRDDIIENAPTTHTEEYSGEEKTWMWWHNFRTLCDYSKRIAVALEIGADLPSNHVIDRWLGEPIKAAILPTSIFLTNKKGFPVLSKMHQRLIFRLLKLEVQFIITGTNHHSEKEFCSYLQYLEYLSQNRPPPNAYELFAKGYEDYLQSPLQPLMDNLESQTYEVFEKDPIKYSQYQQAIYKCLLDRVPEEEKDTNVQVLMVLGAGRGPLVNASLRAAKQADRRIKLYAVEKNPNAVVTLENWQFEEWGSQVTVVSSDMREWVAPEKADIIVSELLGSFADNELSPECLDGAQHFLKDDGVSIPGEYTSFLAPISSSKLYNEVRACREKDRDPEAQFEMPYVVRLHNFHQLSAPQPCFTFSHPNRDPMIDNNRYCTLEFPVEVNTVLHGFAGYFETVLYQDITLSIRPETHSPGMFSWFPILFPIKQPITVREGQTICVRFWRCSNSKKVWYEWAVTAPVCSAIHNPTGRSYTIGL
Chain of PRMT5/MEP50 complex (Q9BQA1 whole entry partner): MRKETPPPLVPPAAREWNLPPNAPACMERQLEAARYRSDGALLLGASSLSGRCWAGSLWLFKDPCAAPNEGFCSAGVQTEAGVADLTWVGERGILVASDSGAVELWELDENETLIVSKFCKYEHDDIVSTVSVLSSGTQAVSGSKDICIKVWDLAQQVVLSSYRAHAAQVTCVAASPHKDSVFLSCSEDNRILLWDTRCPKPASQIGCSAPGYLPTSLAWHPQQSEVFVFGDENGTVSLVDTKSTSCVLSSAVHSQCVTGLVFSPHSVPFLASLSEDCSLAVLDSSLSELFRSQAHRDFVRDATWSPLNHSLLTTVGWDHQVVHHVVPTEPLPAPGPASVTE

N/N=c1/nc[nH]c2c1c(F)cn2[C@@H]1C[C@H]([C@H](O)c2ccc(Cl)cc2)[C@@H](O)[C@H]1O [Example 28-B, 7-[(1R,2S,3R,4R)-4-[(S)-(4-chlorophenyl)-hydroxy-methyl]-2,3-dihydroxy-cyclopentyl]-5-fluoro-H-pyrrolo[2,3-d]pyrimidin-4-one hydrazone hydrochloride]
IC50 [1]: 1.16 µM

CO/N=c1/nc[nH]c2c1ccn2[C@@H]1C[C@H]([C@H](O)c2ccc(Cl)cc2)[C@@H](O)[C@H]1O [Example 49-B, (1S,2R,3R,5R)-3-[(S)-(4-chlorophenyl)-hydroxy-methyl]-5-[(4Z)-4-methoxyimino-1H-pyrrolo[2,3-d]pyrimidin-7-yl]cyclopentane-1,2-diol hydrochloride]
IC50 [1]: 0.543 µM

O/N=c1\nc[nH]c2c1ccn2[C@@H]1C[C@H]([C@H](O)c2ccc(F)c(F)c2)[C@@H](O)[C@H]1O [Example 88-B, 7-((1R,2S,3R,4R)-4-((S)-(3,4-difluorophenyl)(hydroxy)methyl)-2,3-dihydroxycyclopentyl)-1,7-dihydro-4H-pyrrolo[2,3-d]pyrimidin-4-one oxime]
IC50 [1]: 0.037 µM

CO/N=c1\nc[nH]c2c1ccn2[C@@H]1C[C@H]([C@H](O)c2ccc(F)c(F)c2)[C@@H](O)[C@H]1O [Example 89-B, 7-((1R,2S,3R,4R)-4-((S)-(3,4-difluorophenyl)(hydroxy)methyl)-2,3-dihydroxycyclopentyl)-1,7-dihydro-4H-pyrrolo[2,3-d]pyrimidin-4-one O-methyl oxime]
IC50 [1]: 0.095 µM

CCO/N=c1\[nH]cnc2c1ncn2[C@@H]1O[C@H]([C@](C)(O)c2ccc(Cl)c(Cl)c2)[C@@H](O)[C@H]1O [Example 93, (2S,3S,4R,5R)-2-[(1R)-Example 931-(3,4-dichlorophenyl)-1-hydroxy-ethyl]-5-[(6Z)-6-ethoxyimino-1H-purin-9-yl]tetrahydrofuran-3,4-diol]
IC50 [2]: 0.92 µM

O/N=c1/nc[nH]c2c1ccn2[C@@H]1C[C@H]([C@H](O)c2ccc(Cl)c(Cl)c2)[C@@H](O)[C@H]1O [Example 93-B, 7-((1R,2S,3R,4R)-4-((S)-(3,4-dichlorophenyl)(hydroxy)methyl)-2,3-dihydroxycyclopentyl)-1,7-dihydro-4H-pyrrolo[2,3-d]pyrimidin-4-one oxime]
IC50 [1]: 0.0023 µM

CO/N=c1\[nH]cnc2c1ncn2[C@@H]1O[C@H]([C@](C)(O)c2ccc(Cl)c(C)c2)[C@@H](O)[C@H]1O [Example 94, (2S,3S,4R,5R)-2-[(1R)-1-(4-chloro-3-methylphenyl)-1-hydroxy-ethyl]-5-[(6Z)-6-methoxyimino-1H-purin-9-yl]tetrahydrofuran-3,4-diol]
IC50 [2]: 1.62 µM

CCO/N=c1\[nH]cnc2c1ncn2[C@@H]1O[C@H]([C@](C)(O)c2ccc(Cl)c(C)c2)[C@@H](O)[C@H]1O [Example 95, (2S,3S,4R,5R)-2-[(1R)-1-(4-chloro-3-methylphenyl)-1-hydroxy-ethyl]-5-[(6Z)-6-ethoxyimino-1H-purin-9-yl]tetrahydrofuran-3,4-diol]
IC50 [2]: 0.699 µM

CCO/N=c1\nc[nH]c2c1ccn2[C@@H]1O[C@H]([C@H](O)c2ccc(Cl)cc2)[C@@H](O)[C@H]1O [Example 97, 7-((2R,3R,4S,5R)-5-((R)-(4-chlorophenyl)(hydroxy)methyl)-3,4-dihydroxytetrahydrofuran-2-yl)-1,7-dihydro-4H-pyrrolo[2,3-d]pyrimidin-4-one O-ethyl oxime]
IC50 [2]: 0.042 µM

CO/N=c1\nc[nH]c2c1c(CCO)cn2[C@@H]1O[C@H]([C@H](O)c2ccc(Cl)c(Cl)c2)[C@@H](O)[C@H]1O [Example 100, 7-((2R,3R,4S,5R)-5-((R)-(3,4-dichlorophenyl)(hydroxy)methyl)-3,4-dihydroxytetrahydrofuran-2-yl)-5-(2-hydroxyethyl)-1,5-dihydro-4H-7l4-pyrrolo[2,3-d]pyrimidin-4-one O-methyl oxime]
IC50 [2]: 1.77 µM

C#Cc1cn([C@@H]2O[C@H]([C@H](O)c3ccc(Cl)cc3)[C@@H](O)[C@H]2O)c2[nH]cn/c(=N\OC)c12 [Example 101, 7-((2R,3R,4S,5R)-5-((R)-(4-chlorophenyl)(hydroxy)methyl)-3,4-dihydroxytetrahydrofuran-2-yl)-5-ethynyl-1,7-dihydro-4H-pyrrolo[2,3-d]pyrimidin-4-one O-methyl oxime]
IC50 [2]: 0.308 µM

C#Cc1cn([C@@H]2O[C@H]([C@H](O)c3ccc(Cl)c(Cl)c3)[C@@H](O)[C@H]2O)c2[nH]cn/c(=N\OC)c12 [Example 104, 7-((2R,3R,4S,5R)-5-((R)-(3,4-dichlorophenyl)(hydroxy)methyl)-3,4-dihydroxytetrahydrofuran-2-yl)-5-ethynyl-1,5-dihydro-4H-7l4-pyrrolo[2,3-d]pyrimidin-4-one O-methyl oxime]
IC50 [2]: 0.0102 µM

C[C@@](O)(C1C=C(Cl)C(Cl)=CC1)[C@H]1O[C@@H](n2ccc3/c(=N\O)nc[nH]c32)[C@H](O)[C@@H]1O (stereo partly drawn) [Example 105, 7-((2R,3R,4S,5S)-5-((1R)-1-(3,4-dichlorocyclohexa-2,4-dien-1-yl)-1-hydroxyethyl)-3,4-dihydroxytetrahydrofuran-2-yl)-1,7-dihydro-4H-pyrrolo[2,3-d]pyrimidin-4-one oxime]
IC50 [2]: 0.0002 µM

O[C@@H]1[C@H](O)[C@@H]([C@H](O)c2ccc(Cl)c(Cl)c2)O[C@H]1n1ccc2/c(=N/OCC(F)F)nc[nH]c21 [Example 106, 7-((2R,3R,4S,5R)-5-((R)-(3,4-dichlorophenyl)(hydroxy)methyl)-3,4-dihydroxytetrahydrofuran-2-yl)-1,4a,7,7a-tetrahydro-4H-pyrrolo[2,3-d]pyrimidin-4-one 0-(2,2-difluoroethyl) oxime]
IC50 [2]: 0.113 µM

CO/N=c1\nc[nH]c2c1c(F)cn2[C@@H]1O[C@H]([C@](C)(O)c2ccc(Cl)c(Cl)c2)[C@@H](O)[C@H]1O [Example 107, 7-((2R,3R,4S,5S)-5-((R)-1-(3,4-dichlorophenyl)-1-hydroxyethyl)-3,4-dihydroxytetrahydrofuran-2-yl)-5-fluoro-1,7-dihydro-4H-pyrrolo[2,3-d]pyrimidin-4-one O-methyl oxime]
IC50 [2]: 0.028 µM

N/N=c1/nc[nH]c2c1ncn2[C@@H]1O[C@H]([C@H](O)c2ccc(Cl)cc2)[C@@H](O)[C@H]1O [compound 39, (2R,3S,4R,5R)-2-[(R)-(4-chlorophenyl)-hydroxy-methyl]-5-(6-hydrazinopurin-9-yl) tetrahydrofuran-3,4-diol]
IC50 [2]: 0.18 µM

CO/N=c1/nc[nH]c2c1ncn2[C@@H]1O[C@H]([C@H](O)c2ccc(Cl)cc2)[C@@H](O)[C@H]1O [compound 53, (2R,3S,4R,5R)-2-[(R)-(4-chlorophenyl)-hydroxy-methyl]-5-[6-methoxyimino-3H-purin-9-yl]tetrahydrofuran-3,4-diol trifluoroacetic Acid Salt]
IC50 [2]: 0.526 µM

CO/N=c1\nc[nH]c2c1c(F)cn2[C@@H]1OC([C@H](O)c2ccc(Cl)cc2)[C@@H](O)[C@H]1O (stereo partly drawn) [compound 74, 7-((2R,3R,4S)-5-((R)-(4-chlorophenyl)(hydroxy)methyl)-3,4-dihydroxytetrahydrofuran-2-yl)-5-fluoro-1,7-dihydro-4H-pyrrolo[2,3-d]pyrimidin-4-one O-methyl oxime]
IC50 [2]: 0.0756 µM

CO/N=c1\nc[nH]c2c1ccn2[C@@H]1O[C@H]([C@H](O)c2ccc(C(F)(F)F)cc2)[C@@H](O)[C@H]1O [compound 75, 7-((2R,3R,4S,5R)-3,4-dihydroxy-5-((R)-hydroxy(4-(trifluoromethyl)phenyl)methyl)tetrahydrofuran-2-yl)-1,7-dihydro-4H-pyrrolo[2,3-d]pyrimidin-4-one O-methyl oxime]
IC50 [2]: 0.0954 µM

N/N=c1\nc[nH]c2c1ccn2[C@@H]1O[C@H]([C@H](O)c2ccc(C(F)(F)F)cc2)[C@@H](O)[C@H]1O [compound 76, (2R,3R,4S,5R)-2-((Z)-4-hydrazineylidene-1,4-dihydro-7H-pyrrolo[2,3-d]pyrimidin-7-yl)-5-((R)-hydroxy(4-(trifluoromethyl)phenyl)methyl)tetrahydrofuran-3,4-diol]
IC50 [2]: 0.0027 µM

Cc1cn([C@@H]2O[C@H]([C@H](O)c3ccc(Cl)cc3)[C@@H](O)[C@H]2O)c2[nH]cn/c(=N\O)c12 [compound 77, 7-((2R,3R,4S,5R)-5-((R)-(4-chlorophenyl)(hydroxy)methyl)-3,4-dihydroxytetrahydrofuran-2-yl)-5-methyl-1,7-dihydro-4H-pyrrolo[2,3-d]pyrimidin-4-one oxime]
IC50 [2]: 0.118 µM

CO/N=c1\nc[nH]c2c1ccn2[C@@H]1OC([C@](O)(c2ccc(Cl)cc2)C(F)(F)F)[C@@H](O)[C@H]1O (stereo partly drawn) [compound 79, 7-((2R,3R,4S)-5-((R)-1-(4-chlorophenyl)-2,2,2-trifluoro-1-hydroxyethyl)-3,4-dihydroxytetrahydrofuran-2-yl)-1,7-dihydro-4H-pyrrolo[2,3-d]pyrimidin-4-one O-methyl oxime]
IC50 [2]: 6.46 µM
